From patent publication US20180193659A1, “PHOTODYNAMIC THERAPY LIGHT IRRADIATING DEVICE AND LIGHT IRRADIATING METHOD” (Public University Corporation Nagoya City University, priority 2015, published 2018)
Like-named read-outs stand apart in the source and are kept apart here.

Experiments:
[1] = system: HaCaT cells (human skin keratinocyte cell line); assay: Experimental Example 2: cell survival rate of 5-ALA-treated HaCaT cells after 635 nm irradiation under pulse width modulation; assay type: cell-based; conditions: 1 mM 5-ALA, 12 J/cm^2, 125 kHz PWM, off time not more than 4 μs
Procedure: The irradiation was performed using a pulse width modulation control power supply (PWM power supply) with a frequency of 125 kHz capable of adjusting light using pulse width modulation at 256 modes as shown in FIG. 12. Specifically, in the condition (1), light irradiation was performed using pulse width modulation control in which the off time (t(off)) in pulse width modulation was 5.6 μs. In the condition (2), light irradiation was performed using pulse width modulation control in which the off time (t(off)) in pulse width modulation was 5.3 μs. In the condition (3), light irradiation was performed using pulse width modulation control in which the off time (t(off)) in pulse width modulation was 4.8 μs. In the condition (4), light irradiation was performed using pulse width modulation control in which the off time (t(off)) in pulse width modulation was 4.0 μs. In the condition (5), light irradiation was performed using pulse width modulation control in which the off time (t(off)) in pulse width modulation was 2.7 μs. In all the conditions (1) to (5), the pulse period (T) was 8 μs. In the condition (6), light irradiation in which the off time (t(off)) in pulse width modulation was 0 μs, that is, light irradiation that was continuous irradiation under the same condition as that in amplitude variable control was performed.

[2] = system: HaCaT cells (human skin keratinocyte cell line); conditions: 1 mM 5-ALA; for PDT effect (1 - cell survival rate): 0.4 J/cm^2
Procedure: After 4 hours, the plurality of plates except for one plate were each subjected to five kinds of single-wavelength irradiation and four kinds of multiple-wavelength irradiation (specifically, two-wavelength irradiation) at respective amounts of irradiation of 0.2 J/cm^2, 0.4 J/cm^2, 0.6 J/cm^2, 0.8 J/cm^2, 1.0 J/cm^2, and 1.2 J/cm^2. Specifically, in the five kinds of single-wavelength irradiation, irradiation with each of light having a wavelength of 405 nm, light having a wavelength of 505 nm, light having a wavelength of 545 nm, light having a wavelength of 570 nm, and light having a wavelength of 635 nm was performed. The four kinds of multiple-wavelength irradiation with light in which the light having the wavelength of 405 nm and the light having the wavelength of 505 nm were combined, light in which the light having the wavelength of 405 nm and the light having the wavelength of 545 nm were combined, light in which the light having the wavelength of 405 nm and the light having the wavelength of 570 nm were combined, and light in which the light having the wavelength of 405 nm and the light having the wavelength of 635 nm were combined were performed. In the single-wavelength irradiation and the multiple-wavelength irradiation, as a light source of the light having the wavelength of 405 nm, an LED element in which the energy of light from the light source was 11 mW/cm^2 (irradiation distance: 100 mm) was used. […]
Subsequently, in the plurality of plates that had been irradiated with light and the plate that had not been irradiated with light, cultivation was performed over 18 hours. The cell survival rate was measured by an MTT assay using an XTT cell proliferation assay kit.
On the basis of the results of cell survival rate at an amount of irradiation of 0.4 J/cm^2, a therapeutic effect by a photodynamic therapy (hereinafter also referred to as “PDT effect”) was calculated by the following expression (1).
Herein, the cell survival rate reference value is a value calculated by the following expression (2). […]

Compound: NCC(=O)CCC(=O)O [5-ALA, δ-aminolevulinic acid]
- PDT effect under pulse width modulation versus continuous irradiation [1]: the same as that in continuous irradiation
- PDT effect, single-wavelength irradiation ([2]; 4 h, 405 nm compared with 505, 545, 570 and 635 nm): most excellent PDT effect
- PDT effect (1 - cell survival rate) ([2]; 405 nm + 505 nm): excellent PDT effect is obtained
- PDT effect (1 - cell survival rate) ([2]; 405 nm + any of 545, 570, 635 nm): sufficient PDT effect is not obtained
